Structures are written as SMILES. Read-outs that look alike come from different tables or passages of the source. Marks after values point to notes of the source that are not given here.

In general, EC50 refers to the concentration giving half of the maximal effect.

The test system of experiment [1] is Agxt1-KO mouse hepatocyte cultures. The experiment is described as follows: Oxalate reduction assay in primary hepatocyte cultures from hyperoxaluric mice, glycolate-loaded. The class given is cell-based. The following applies: for Relative oxalate at 10 μM: compound at 10 μM, Agxt1-/- mouse hepatocytes with 5 mM glycolate, mean ± standard deviation; for EC50: Agxt1-KO mouse hepatocytes, 5 mM glycolate. How it is done: Isolation and culture of hepatocytes: The isolation of hepatocytes from AGT enzyme-deficient mice was carried out as described in the literature. A total of 3.0×10^5 cells/well were then cultured in 6-well plates in William's E medium supplemented with foetal bovine serum (5%), I-glutamine (2 mM), penicillin (100 U/ml), streptomycin (100 μg/ml), insulin (2.2 mIU/ml) and hydrocortisone (0.3 μg/ml). After 5 h, the medium was switched to serum-free complete William's E medium (Biochrom, Cambridge, UK), and the cells were treated with increasing concentrations of each of the drugs in the presence of 5 mM glycolate. Samples of the culture medium were collected at 24, 48 and 72 h after treatment, to quantify oxalate.
Determination of oxalate: The determination of oxalate excreted into the medium was carried out by assaying in the presence of oxalate oxidase using a commercial kit (Trinity Biotech, Co Wicklow, Ireland), following the manufacturer's indications. GraphPad Prism 5 software was used for the graphical representation of the data as the mean±SD.
The efficacy of reducing oxalate production was measured in primary hepatocyte cultures obtained from hyperoxaluric mice (Agxt1^−/−). Cultures of less than 5 days were used to prevent possible interferences due to cell differentiation. For the short-term increase in the production of oxalate in cells and for obtaining detectable levels in standard enzymatic assays, glycolate was added to the culture medium at a concentration of 5 mM. Firstly, the viability of the hepatocytes treated with increasing concentrations of each drug up to 200 μM in the presence of glycolate was tested in comparative assays with control hepatocytes not treated with a drug and at different times.
Oxalate reduction assays were then carried out. Samples of the culture medium were taken every 24 hours after treatment with each of the compounds under evaluation. In each of these samples was measured the concentration of oxalate excreted into the medium by Agxt1^−/− hepatocytes. The determination of oxalate in the samples was carried out using a colorimetric enzymatic assay based on two consecutive reactions catalysed by the enzymes oxalate oxidase and peroxidase, respectively.

Experiment [2] concerns mice with PH-1 (Agxt1-KO). To be noted: cited from earlier work.
The mark [3] stands for this setting: Hepatocyte, 24 h after treatment, read-out: EC50 (24 h), reduced production of oxalate.
The mark [4] stands for this setting: Hepatocyte, 48 h after treatment, read-out: EC50 (48 h), reduced production of oxalate.
[5] abbreviates: Hepatocyte, 72 h after treatment, read-out: EC50 (72 h), reduced production of oxalate.

Turning to `O=C(O)c1cc(-c2ccoc2)ccc1O`, in experiment [1], the “Relative oxalate at 10 μM” value was 0.89 ± 0.16.

For `Oc1ccc(-c2ccoc2)cc1O`, the “Relative oxalate at 10 μM” value in experiment [1] is on record as 1.02 ± 0.3.

Consider `O=Cc1ccc(-c2ccc(C(=O)O)c(O)c2)o1`, for which the “Relative oxalate at 10 μM” value in experiment [1] turned out to be 0.88 ± 0.18.

As for `COc1cc(-c2ccc(C=O)o2)ccc1C(=O)O`, in experiment [1], the “Relative oxalate at 10 μM” value turned out to be 0.82 ± 0.04.

Consider `O=C(O)c1cc([N+](=O)[O-])c(-c2ccco2)cc1O`, for which, in experiment [1], the “Relative oxalate at 10 μM” value is on record as 0.86 ± 0.04.

On to `O=C(O)c1ccc(-c2ccc(CO)o2)cc1O`, for which the “Relative oxalate at 10 μM” value in experiment [1] came to 0.88 ± 0.01.

With `O=C(O)c1cc(-c2ccc(CO)o2)ccc1O`, the “Relative oxalate at 10 μM” value in experiment [1] is 0.88 ± 0.19.

Turning to `CC(=O)c1ccc(-c2ccc(C(=O)O)c(O)c2)s1`, the “Relative oxalate at 10 μM” value in experiment [1] came out at 0.89 ± 0.14.

Take `O=C(O)c1cc(-c2cccs2)ccc1O`: the “Relative oxalate at 10 μM” value in experiment [1] is on record as 0.82 ± 0.01.

For the compound `O=C(O)c1ccc(-c2cccs2)cc1O`, the “Relative oxalate at 10 μM” value in experiment [1] is 0.74 ± 0.16.

Regarding `O=C(O)c1ccc(-c2ccncc2)cc1O`, the “Relative oxalate at 10 μM” value in experiment [1] came out at 0.88 ± 0.03.

For the compound `COc1cccc(-c2ccc(C(=O)O)c(O)c2)c1`, in experiment [1], the “Relative oxalate at 10 μM” value is given as 0.83 ± 0.03.

On to `O=C(O)c1ccc(-c2ccc(O)cc2)cc1O`, for which, in experiment [1], the “Relative oxalate at 10 μM” value is 0.82 ± 0.01.

Take `O=C(O)c1cc(-c2ccc(F)cc2F)ccc1O`: the “Relative oxalate at 10 μM” value in experiment [1] is 0.88 ± 0.08.

With `O=C(O)c1cc(-c2ccc(OCc3ccccc3)cc2)ccc1O`, in experiment [1], the “Relative oxalate at 10 μM” value was determined as 0.8 ± 0.16.

As for `COc1ccc(COc2ccc(-c3ccc(C(=O)O)c(O)c3)cc2)cc1`, in experiment [1], the “Relative oxalate at 10 μM” value came out at 0.90 ± 0.16.

As for `O=C(O)c1ccc(-c2ccccc2COc2cc(F)cc(F)c2)cc1O`, in experiment [1], the “Relative oxalate at 10 μM” value was 0.72 ± 0.16.

With `O=C(O)c1ccc(-c2ccccc2COc2cccc(C(F)(F)F)c2)cc1O`, the “Relative oxalate at 10 μM” value in experiment [1] is given as 0.62 ± 0.29.

Regarding `O=C(O)c1cc(-c2ccccc2COc2cccc(C(F)(F)F)c2)ccc1O`, in experiment [1], the “Relative oxalate at 10 μM” value stood at 0.68 ± 0.21.

Regarding `N.O=C(O)c1cc(-c2ccc(CNc3ccc(Br)cc3)o2)ccc1O`, the “Relative oxalate at 10 μM” value in experiment [1] came out at 0.373 ± 0.063.

Regarding `C#CCCCC(=O)Nc1ccc(C(=O)c2ccc(NCc3ccc(-c4ccc(O)c(C(=O)O)c4)o3)cc2)cc1.N`, the “Relative oxalate at 10 μM” value in experiment [1] is 0.144 ± 0.322.

`N.O=C(O)c1cc(-c2ccc(CNc3ccc([N+](=O)[O-])cc3)o2)ccc1O`: the “Relative oxalate at 10 μM” value in experiment [1] is −0.236 ± 0.115.

On to `O=C(O)c1nnsc1Sc1ccc(Cl)cc1` [CCPST, reference compound], for which the “effectiveness in reducing oxalate levels” value in experiment [2] is “reducing oxalate levels”. Further, the EC50 came to 25.3 µM in experiment [1] (24 h after treatment, read-out: EC50 (24 h), reduced production of oxalate); 32.9 µM in experiment [1] (48 h after treatment, read-out: EC50 (48 h), reduced production of oxalate); 33.9 µM in experiment [1] (72 h after treatment, read-out: EC50 (72 h), reduced production of oxalate).

Regarding `O=C(O)c1ccc(-c2ccco2)cc1O` [Compound 73, 4-(2-furyl)-2-hydroxybenzoic acid], the concentration giving a half-maximal response (EC50) in experiment [1] (setting [3]) was 9.35 µM; in experiment [1] (setting [4]), 92.2 µM.

In the case of `O=C(O)c1cc(-c2ccco2)ccc1O` [Compound 74, 5-(2-furyl)-2-hydroxybenzoic acid], the figures for the half-maximal effective concentration (EC50) in experiment [1] (setting [3]), in experiment [1] (setting [4]) and in experiment [1] (setting [5]) were 3.59 µM, 7.88 µM and 9.2 µM, respectively.

As for `O=Cc1ccc(-c2ccc(O)c(C(=O)O)c2)o1` [Compound 78, 5-(5-formyl-2-furyl)-2-hydroxybenzoic acid], the results for the EC50 in experiment [1] (setting [3]), in experiment [1] (setting [4]) and in experiment [1] (setting [5]) were 3.45 µM, 8.36 µM and 11.2 µM, respectively.

For `O=C(O)c1ccc(-c2ccco2)cc1O` [drawing 12], in experiment [1], the “Relative oxalate at 10 μM” value is listed as 0.87 ± 0.15.

Regarding `O=C(O)c1cc(-c2ccco2)ccc1O` [drawing 13], the “Relative oxalate at 10 μM” value in experiment [1] was −0.25 ± 0.2.

Consider `O=Cc1ccc(-c2ccc(O)c(C(=O)O)c2)o1` [drawing 17], for which the “Relative oxalate at 10 μM” value in experiment [1] is given as −0.06 ± 0.29^a.

(Values after patent publication US20200197418A1, “COMPOUNDS FOR THE TREATMENT OF DISEASES CAUSED BY OXALATE ACCUMULATION” (UNIVERSIDAD DE GRANADA, priority 2017, published 2020).)
